We go through 3 molecules from paper PMC10539350 (Scientific Reports, 2023).

Series [1] deals with M. tuberculosis H37Rv. Put plainly: tuberculostatic activity, broth microdilution MIC (Alamar blue). Format: cell-based, Mycobacterium tuberculosis. Conditions: Mycobacterium tuberculosis, 504 h; M. tuberculosis H37Rv; 21 days 37 °C, Middlebrook 7H9 + OADC; read-out: Minimal inhibitory concentration.
For series [2], the system named is M. tuberculosis SIR Ciprofloxacin susceptible 168/22. The series is described as above. Conditions: Mycobacterium tuberculosis; read-out: Minimal inhibitory concentration. Format: cell-based, Mycobacterium tuberculosis.
The test system of series [3] is Mycobacterium tuberculosis strains (H37Rv, 22/22, 168/22). The experiment in a line: synergism-antagonism evaluation, summary over all strains. Format: cell-based.
A short description of series [4]: IAM-HPLC affinity to phospholipids (CHI protocol). Format: physicochemical.
Series [5] can be described thus: physchem. Format: physicochemical. The text has this: For HPLC analyses Prominence-1 LC-2030C 3D HPLC system (Shimadzu, Japan) equipped with a DAD detector and controlled by LabSolution system (version 5.90 Shimadzu, Japan) was used. Two different chromatography columns packed with surface-modified silica were utilized in this study: • Octyldecylsilane (C18 Hypersil GOLD™; 50 mm × 4.6 mm; 5.0 µm; Thermo Scientific, USA) • Immobilized artificial membrane (IAM.PC.DD2; 10 × 4.6 mm × 10.0 µm; Regis Technologies; USA).
Both columns were equipped with guard precolumn containing the same silica-modified bed as the main column. All measurements were carried out using the protocol proposed by Valko[19] and co-workers and adopted in our laboratory. Briefly, methods developed by Valko offered the determination of Chromatographic Hydrophobicity Index (CHI) indices using one gradient elution experiment. Ammonium acetate buffer (50 mM, pH 7.4) and acetonitrile (ACN) were used as the mobile phase at a 1.5 mL/min flow rate. The gradient range varies depending on the column type: • For C18 starting from 2 to 98% ACN in 5.25 min. The maximum concentration of ACN was applied for 1.75 min. • For IAM starting from 0 to 85% ACN in 5.25 min. The maximum concentration of ACN was used for 0.5 min.
During the chromatographic separation, the temperature was stable at 30 °C. […] The injected volume was 10 μL, whereas the concentration of solutes was at level 100 μg/mL. All studied compounds were dissolved in DMSO. Each chromatographic experiments run in triplicate. […] Retention times for studied molecules and reference standards are collected in supplementary materials, Tables S1, S2 and S3, respectively.
Next, the CHIC18 values were converted into lipophilicity indices CHI log D using Eq. […]

In series [6] the test system is human colon cancer cells (HCT-116). The settings on record: cited from earlier work.
Series [7] has as its system human immortal keratinocyte cell line (HaCaT). The settings on record: cited from earlier work.
The conditions of series [8]: determined in an earlier study ref 15; cited from earlier work.
The conditions of series [9]: determined in an earlier study ref 15; cited from earlier work. The source holds these as a separate data set.
In series [10] the test system is M. tuberculosis H37Rv. Format: cell-based, Mycobacterium tuberculosis. The settings on record: derivative 6 at 1/2 MIC.

Values after ≈ are worked out from the molar mass of the structure shown. Like-named read-outs stand apart in the source and are kept apart here.

In the case of `CC(C)[C@@H]1CC[C@@H](C)C[C@H]1OC(=O)CCCCCN1CCN(c2cc3c(cc2F)c(=O)c(C(=O)O)cn3C2CC2)CC1` [Compound 6, 1‐cyclopropyl‐6‐fluoro‐7‐{4‐[6‐((1R,2S,5R)‐2‐isopropyl‐5‐methylcyclohexyloxy)‐6‐oxohexyl]piperazin‐1‐yl}‐4‐oxo‐1,4‐dihydroquinoline‐3‐carboxylic acid], the MIC in series [1] is 1000 ng/mL. In addition, the MIC in [2] was determined as 1000 ng/mL (≈ 1.71 µM). Further, in series [3], the “FICI values, derivative 6 with Linezolid” value was 1.0 and the “interaction type from FICI” value is “indifference (key: synergism (FICI ≤ 0.5); indifference (> 0.5 FICI ≤ 4); antagonism (FICI > 4))”. The “log kIAM” value in series [4] (0.045*CHIIAM+0.42) was 2.74. The CHIIAM in series [4] (IAM column, pH 7.4, ACN gradient) amounted to 51.47. In series [5] (C18 column, pH 7.4, ACN gradient), this molecule yielded a CHIC18 of 139.48. Further, in series [5] (pH 7.4), the chromatographic logD amounted to 5.86. Further, in series [6] (HCT-116, MTT assay ref 10), the IC50 is 29.5 ± 2.1 µM. Moreover, the selectivity index in [6] (HCT-116 versus HaCaT ref 10) was 3.4. For the same molecule, in series [7], the cytotoxic effect result is on record as “no cytotoxic effect”.

`O=C(O)c1cn(C2CC2)c2cc(N3CCNCC3)c(F)cc2c1=O` [Ciprofloxacin, reference compound]: in series [8], the CHIIAM is given as 19.70 and the “log kIAM” value is 1.31. The CHIC18 in [9] is recorded as 35.61.

`CC(=O)NC[C@H]1CN(c2ccc(N3CCOCC3)c(F)c2)C(=O)O1` [Linezolid, reference compound]: the MIC in series [1] worked out at 3 ng/mL; in series [2] it was 7 ng/mL (≈ 0.0207 µM). In addition, the “MIC for reference drug in the presence of derivative 6” value in series [10] was determined as 1.5 ng/mL.

By chromatographic logD is commonly meant lipophilicity estimated from chromatographic retention. A high value points to a more lipophilic compound. What is called IC50 is the concentration that inhibits the measured activity by half.
